# Test results taken from patent US11046714B2, “2,2-difluorodioxolo A2A receptor antagonists” (Merck Sharp & Dohme Corp., priority 2013, dated 2021).
# Molecular target: human A2A receptor (Homo sapiens (Human), UniProt P29274)
# Assay: competition binding assay using Scintillation Proximity technology
# Conditions: membranes from CHO-K1 cells expressing the human A2a receptor; 2.0 nM tritiated compound; Cheng-Prusoff
# Summary of the method: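 Membranes (1.0 μg) from CHO-K1 cells expressing human A2A were treated with adenosine deaminase, then incubated 1 h at room temperature with compound (3000–0.15 nM) and 2.0 nM tritiated SCH-type ligand on WGA SPA beads in PBS plus 10 mM MgCl2. Nonspecific binding was defined with 1 μM CGS 15943. Ki was derived from EC50 via Cheng-Prusoff.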
# human A2A receptor, sequence (P29274 whole entry): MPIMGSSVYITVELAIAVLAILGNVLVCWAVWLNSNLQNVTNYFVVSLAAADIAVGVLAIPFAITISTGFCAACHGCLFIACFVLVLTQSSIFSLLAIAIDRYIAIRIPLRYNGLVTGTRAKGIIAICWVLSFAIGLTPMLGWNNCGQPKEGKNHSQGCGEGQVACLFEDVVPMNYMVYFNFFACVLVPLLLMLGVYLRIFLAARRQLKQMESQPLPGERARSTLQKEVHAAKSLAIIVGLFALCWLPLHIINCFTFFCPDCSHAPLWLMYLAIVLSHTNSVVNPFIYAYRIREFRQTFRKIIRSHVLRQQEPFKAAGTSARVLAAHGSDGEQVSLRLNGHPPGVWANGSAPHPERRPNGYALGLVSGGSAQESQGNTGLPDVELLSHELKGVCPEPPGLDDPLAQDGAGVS
row,SMILES,Ki
1,"Nc1nc2c3c(ccc2c2nc(CCNCc4ccc(C(F)(F)F)cc4)nn12)OC(F)(F)O3 [Example 59, 2,2-difluoro-8-(2-{[4-(trifluoromethyl)benzyl]amino}ethyl)[1,3]dioxolo[4,5-h][1,2,4]triazolo[1,5-c]quinazolin-5-amine]",6.2 nM
2,"Cc1csc(CN(CCc2nc3c4ccc5c(c4nc(N)n3n2)OC(F)(F)O5)CC2CC2)n1 [Example 60, 8-(2-{(cyclopropylmethyl)[(4-methyl-1,3-thiazol-2-yl)methyl]amino}ethyl)-2,2-difluoro[1,3]dioxolo[4,5-h][1,2,4]triazolo[1,5-c]quinazolin-5-amine]",0.7 nM
3,"Cc1ncc(CN(CCc2nc3c4ccc5c(c4nc(N)n3n2)OC(F)(F)O5)CC2CC2)s1 [Example 61, 8-(2-{(cyclopropylmethyl)[(2-methyl-1,3-thiazol-5-yl)methyl]amino}ethyl)-2,2-difluoro[1,3]dioxolo[4,5-h][1,2,4]triazolo[1,5-c]quinazolin-5-amine]",1.5 nM
4,"Nc1nc2c3c(ccc2c2nc(CCN4CCCC(C(F)(F)F)C4)nn12)OC(F)(F)O3 (stereo not drawn) [Example 62, 2,2-difluoro-8-{2-[3-(trifluoromethyl)piperidin-1-yl]ethyl}[1,3]dioxolo[4,5-h][1,2,4]triazolo[1,5-c]quinazolin-5-amine]",3.6 nM
5,"C[C@H](Cc1nc2c3ccc4c(c3nc(N)n2n1)OC(F)(F)O4)N1Cc2ccncc2C1 [Example 74, (R)-8-(2-(1H-pyrrolo[3,4-c]pyridin-2(3H)-yl)propyl)-2,2-difluoro-[1,3]dioxolo[4,5-h][1,2,4]triazolo[1,5-c]quinazolin-5-amine]",7.1 nM
6,"C[C@H](Cc1nc2c3ccc4c(c3nc(N)n2n1)OC(F)(F)O4)N1CCc2cccnc21 [Example 75, 8-[(2R)-2-(2,3-dihydro-1H-pyrrolo [2,3-b]pyridin-1-yl)propyl]-2,2-difluoro[1,3]dioxolo[4,5-h][1,2,4] triazolo[1,5-c]quinazolin-5-amine]",4.2 nM
7,"C[C@H](Cc1nc2c3ccc4c(c3nc(N)n2n1)OC(F)(F)O4)N1CCc2ccncc2C1 [Example 77, 8-[(2R)-2-(3,4-dihydro-2,7-naphthyridin-2(1H)-yl)propyl]-2,2-difluoro[1,3]dioxolo[4,5-h] [1,2,4]triazolo[1,5-c]quinazolin-5-amine]",3.9 nM
8,"Cc1nc2c(o1)CN([C@H](C)Cc1nc3c4ccc5c(c4nc(N)n3n1)OC(F)(F)O5)CC2 [Example 79, 2,2-difluoro-8-[(2R)-2-(2-methyl-6,7-dihydro[1,3]oxazolo[5,4-c]pyridine-5(4H)-yl)propyl][1,3] dioxolo[4,5-h][1,2,4]triazolo[1,5-c] quinazolin-5-amine]",1.3 nM
9,"Cc1nc2c(s1)CN([C@H](C)Cc1nc3c4ccc5c(c4nc(N)n3n1)OC(F)(F)O5)CC2 [Example 80, 2,2-difluoro-8-[(2R)-2-(2-methyl-6,7-dihydro[1,3]thiazolo[5,4-c]pyridin-5(4H)-yl)propyl][1,3] dioxolo[4,5-h][1,2,4]triazolo [1,5-c]quinazolin-5-amine]",2.6 nM
10,"Cc1nc2c(s1)CCN([C@H](C)Cc1nc3c4ccc5c(c4nc(N)n3n1)OC(F)(F)O5)C2 [Example 82, 2,2-difluoro-8-[(2R)-2-(2-methyl-6,7-dihydro[1,3]thiazolo[4,5-c]pyridin-5(4H)-yl)propyl][1,3] dioxolo[4,5-h][1,2,4]triazolo [1,5-c]quinazolin-5-amine]",1.5 nM
11,"Cc1cc2n(n1)CCN([C@H](C)Cc1nc3c4ccc5c(c4nc(N)n3n1)OC(F)(F)O5)C2 [Example 83, 2,2-difluoro-8-[(2R)-2-(2-methyl-6,7-dihydropyrazolo[1,5-a]pyrazin-5(4H)-yl)propyl][1,3]dioxolo[4,5-h] [1,2,4]triazolo[1,5-c]quinazolin-5-amine]",3.8 nM
12,"C[C@@H](Cc1nc2c3ccc4c(c3nc(N)n2n1)OC(F)(F)O4)N1CC(C)(F)C1 [Example 88, 2,2-difluoro-8-[(2S)-2-(3-fluoro-3-methylazetidin-1-yl)propyl][1,3] dioxolo[4,5-h][1,2,4]triazolo [1,5-c]quinazolin-5-amine]",4.8 nM
13,"Nc1nc2c3c(ccc2c2nc(CCn4cccn4)nn12)OC(F)(F)O3 [Example 99, 8-(2-(1H-pyrazol-1-yl)ethyl)-2,2-difluoro-[1,3]dioxolo[4,5-h][1,2,4]triazolo[1,5-c]quinazolin-5-amine]",2.7 nM
14,"Nc1nc2c3c(ccc2c2nc(CN4CCN(c5ccc(F)cn5)CC45CC5)nn12)OC(F)(F)O3 [Example 103, 2,2-difluoro-8-{[7-(5-fluoropyridin-2-yl)-4,7-diazaspiro[2.5]oct-4-yl]methyl}[1,3]dioxolo[4,5-h][1,2,4] triazolo[1,5-c]quinazolin-5-amine]",3.4 nM
15,"Nc1nc2c3c(ccc2c2nc(CN4CCN(c5cccc(F)c5)CC45CC5)nn12)OC(F)(F)O3 [Example 104, 2,2-difluoro-8-{[7-(3-fluorophenyl)-4,7-diazaspiro[2.5]oct-4-yl]methyl} [1,3]dioxolo[4,5-h][1,2,4]triazolo [1,5-c]quinazolin-5-amine]",8.7 nM
16,"COCCOc1ccc(N2CCN(Cc3nc4c5ccc6c(c5nc(N)n4n3)OC(F)(F)O6)C3(CC3)C2)cc1 [Example 105, 2,2-difluoro-8-({7-[4-(2-methoxyethoxy)phenyl]-4,7-diazaspiro[2.5]oct-4-yl}methyl) [1,3]dioxolo[4,5-h][1,2,4]triazolo [1,5-c]quinazolin-5-amine]",3.7 nM
17,"C[C@@H]1CN(c2nsnc2Cl)CCN1Cc1nc2c3ccc4c(c3nc(N)n2n1)OC(F)(F)O4 [Example 108, 8-{[(2R)-4-(4-chloro-1,2,5-thiadiazol-3-yl)-2-methylpiperazin-1-yl]methyl}-2,2-difluoro[1,3] dioxolo[4,5-h][1,2,4]triazolo[1,5-c]quinazolin-5-amine]",7.5 nM
18,"Nc1nc2c3c(ccc2c2nc(CN4CC(F)(F)C4)nn12)OC(F)(F)O3 [Example 109, 8-((3,3-difluoroazetidin-1-yl)methyl)-2,2-difluoro-[1,3]dioxolo[4,5-h][1,2,4]triazolo[1,5-c]quinazolin-5-amine]",5.9 nM
19,"CC1(C)CN(Cc2nc3c4ccc5c(c4nc(N)n3n2)OC(F)(F)O5)C1 [Example 110, 8-[(3,3-dimethylazetidin-1-yl)methyl]-2,2-difluoro[1,3]dioxolo[4,5-h][1,2,4]triazolo[1,5-c]quinazolin-5-amine]",2.9 nM
20,"CC1(F)CN(Cc2nc3c4ccc5c(c4nc(N)n3n2)OC(F)(F)O5)C1 [Example 111, 2,2-difluoro-8-[(3-fluoro-3-methylazetidin-1-yl)methyl][1,3] dioxolo[4,5-h][1,2,4]triazolo[1,5-c]quinazolin-5-amine]",1.4 nM

# Results, then the molecule that gave them:
row,Ki,SMILES
1,36 nM,"C[C@@H]1CN(CCc2nc3c4ccc5c(c4nc(N)n3n2)OC(F)(F)O5)C[C@@H](C)O1 [Example 63, 8-{2-[(2R,6R)-2,6-dimethylmorpholin-4-yl]ethyl}-2,2-difluoro[1,3]dioxolo[4,5-h][1,2,4] triazolo[1,5-c]quinazolin-5-amine]"
2,1.8 nM,"C[C@H](Cc1nc2c3ccc4c(c3nc(N)n2n1)OC(F)(F)O4)N1CCc2ccncc21 [Example 76, 8-[(2R)-2-(2,3-dihydro-1H-pyrrolo [2,3-c]pyridin-1-yl)propyl]-2,2-difluoro[1,3]dioxolo[4,5-h][1,2,4] triazolo[1,5-c]quinazolin-5-amine]"
3,1.4 nM,"C[C@H](Cc1nc2c3ccc4c(c3nc(N)n2n1)OC(F)(F)O4)N1CCc2cccnc2C1 [Example 78, 8-[(2R)-2-(5,8-dihydro-1,7-naphthyridin-7(6H)-yl)propyl]-2,2-difluoro[1,3]dioxolo[4,5-h] [1,2,4]triazolo[1,5-c]quinazolin-5-amine]"
4,2.4 nM,"C[C@H](Cc1nc2c3ccc4c(c3nc(N)n2n1)OC(F)(F)O4)N1CCc2nc(C3CC3)oc2C1 [Example 81, 8-[(2R)-2-(2-cyclopropyl-6,7-dihydro [1,3]oxazolo[5,4-c]pyridin-5(4H)-yl)propyl]-2,2-difluoro[1,3] dioxolo[4,5-h][1,2,4]triazolo[1,5-c]quinazolin-5-amine]"
5,4.9 nM,"C[C@H](Cc1nc2c3ccc4c(c3nc(N)n2n1)OC(F)(F)O4)N1CC(C)(F)C1 [Example 84, 2,2-difluoro-8-[(2R)-2-(3-fluoro-3-methylazetidin-1-yl)propyl][1,3] dioxolo[4,5-h][1,2,4]triazolo[1,5-c]quinazolin-5-amine]"
6,7.7 nM,"C[C@@H](Cc1nc2c3ccc4c(c3nc(N)n2n1)OC(F)(F)O4)N1Cc2ccncc2C1 [Example 87, (S)-8-(2-(1H-pyrrolo[3,4-c]pyridin-2(3H)-yl)propyl)-2,2-difluoro-[1,3]dioxolo[4,5-h][1,2,4]triazolo[1,5-c]quinazolin-5-amine]"
7,31 nM,"CC(C)(Cc1nc2c3ccc4c(c3nc(N)n2n1)OC(F)(F)O4)N1CC(F)C1 [Example 101, 2,2-difluoro-8-(2-(3-fluoroazetidin-1-yl)-2-methylpropyl)-[1,3]dioxolo[4,5-h][1,2,4]triazolo[1,5-c]quinazolin-5-amine]"
8,3.5 nM,"Nc1nc2c3c(ccc2c2nc(CN4CCN(c5ccc(F)cc5)CC45CC5)nn12)OC(F)(F)O3 [Example 102, 2,2-difluoro-8-((7-(4-fluorophenyl)-4,7-diazaspiro[2.5]octan-4-yl)methyl)-[1,3]dioxolo[4,5-h][1,2,4]triazolo[1,5-c]quinazolin-5-amine]"
9,2.1 nM,"C[C@@H]1CN(c2ccc(F)cc2)CCN1Cc1nc2c3ccc4c(c3nc(N)n2n1)OC(F)(F)O4 [Example 106, 2,2-difluoro-8-{[(2R)-4-(4-fluorophenyl)-2-methylpiperazin-1-yl]methyl}[1,3]dioxolo[4,5-h][1,2,4] triazolo[1,5-c]quinazolin-5-amine]"
10,4 nM,"Cc1ncc(N2CCN(Cc3nc4c5ccc6c(c5nc(N)n4n3)OC(F)(F)O6)[C@H](C)C2)s1 [Example 107, 2,2-difluoro-8-{[(2R)-2-methyl-4-(2-methyl-1,3-thiazol-5-yl)piperazin-1-yl]methyl}[1,3]dioxolo[4,5-h][1,2,4] triazolo[1,5-c]quinazolin-5-amine]"
